Measurements published in patent US20250169495A1, “COMPOSITIONS AND METHODS FOR CONTROLLING DROSOPHILA FLIES” (Rutgers, The State University of New Jersey, priority 2023, published 2025).

Experiments:
[1] = Emission rate from polyethylene sachets, semi-field cages; format: physicochemical; settings: sachet with 2.5 mL, 24 h
Method: On the day of testing, two bushes were placed in each cage (FIG. 6B). Each bush in the tent was surrounded by a metal tomato cage. The bagged blueberry fruit clusters in the field were clipped and brought inside the cages. Clusters of 10 berries were created and placed in water picks. Five berry clusters were distributed randomly and evenly on each tomato cage at different heights using green twist ties (FIG. 6B). The sachets used for the treatments were prepared according to the methods described by Gale et al. (2024). They were constructed from 8 cm strips of polyethylene tubing (5.1 cm width, 2 MIL thickness; ULINE, Pleasant Prairie, WI, USA) and polyester felt (Grainger, Lake Forest, IL, USA). One end of the polyethylene tubing was sealed with an impulse sealer. A 5 cm strip of felt was placed inside the sachet's open end, and a 2.5 mL aliquot of each treatment was pipetted onto the felt. The open end was then sealed shut with the impulse sealer, entirely sealing the saturated felt. A hole was punched at the top of each sachet, away from the treatment area to avoid damaging the sealed section, and green twist ties were used to hang the sachets in the center of a bush (FIG. 6B). Before loading the sachets, the weights of the empty sachets were taken. The sachets were weighed again directly after loading with the compounds and then a final time after the 24-hour test period to measure the emission rates of each volatile. Finally, the emission rates of compounds in the semi-field and field cage studies were calculated by subtracting the final weight of the sachets from the initial weight and dividing by the time interval (24 h or 3 days). These rates were then compared across repellent treatments using ANOVA, with Tukey pairwise comparisons conducted when significant differences were found.

[2] = test system: male and female Drosophila suzukii antennae; assay: Electroantennogram (EAG) assay; settings: for strength of EAG response compared among treatments: 0.001-10 mg doses; for antennal (EAG) response: 0.001-10 mg doses in hexane, N=10
Method: Electroantennogram (EAG) assays were conducted to determine the antennal response of sexually mature male and female D. suzukii to ethyl butanoate, ethyl (E)-but-2-enoate, and 2-pentylfuran. The antennal responses of male and female D. suzukii to each compound were tested at five doses (0.001 mg, 0.01 mg, 0.1 mg, 1 mg, and 10 mg) diluted in hexane. The stimulus cartridge preparations, antennal preparations, and EAG apparatus used were similar to those previously described in the literature. Stimulus applicators consisted of a 14.5-cm-long glass Pasteur pipette containing 20 μL of each volatile dose (or hexane control) pipetted onto a 6×0.5-cm strip of filter paper. The applicators containing the impregnated filter paper were placed under the fume hood for 2 min to allow the hexane to evaporate. For the recording and base electrodes, a silver wire was inserted into a drawn capillary tube filled with phosphate-buffered saline (NaCl, 4 g; NA2HPO4, 0.57 g; KH2PO4, 0.1 g; KCl, 0.1 g in 500 ml distilled water). To attach the base electrode to the fly, the fly's abdomen was removed, and the sharp tip of the saline-filled capillary tube was pulled directly into the thoracic cavity. Once the fly preparation was mounted, the recording electrode was carefully moved toward the antenna using a micromanipulator until the antenna touched the pool of saline solution on the recording electrode. Antennal preparations were exposed to a constant stream of charcoal-filtered and humidified air at a rate of 1.5 l/min.
The EAG apparatus consisted of an IDAC-02 interface board for data acquisition and used Syntech software (Syntech Ltd., Hilversum, The Netherlands) for recording, storing, and quantifying EAG responses. Antennal preparations were primed with 1 mg of acetoin, a known attractant and antennally active compound, to ensure that the antennae were prepared correctly and responsive (positive control). Then, the antennae were exposed to a hexane control, followed by exposure to increasing doses of one of the volatiles. Each antenna was exposed to four rounds of each dose of a single compound before being discarded. Six antennae were tested daily: three from males and three from females. Test and control compounds were applied at 10 second(s) intervals at a pulse rate of 0.5 s, with a 1-min interval between each stimulus. Maximum amplitudes of depolarizations were measured (in millivolts) for each compound with the response from the hexane-only controls subtracted from the other doses to normalize the antennal response. In total, each dose of each compound was replicated 10 times for each sex.
To analyze the effect of dose of the three repellents on D. suzukii antennal responses, a generalized linear model (GLM) was used with a Poisson distribution and a log link function in SPSS Statistics 23.0 (IBM Corp, Armonk, NY, USA). The model included ‘Treatment’ (ethyl butanoate, ethyl (E)-but-2-enoate, and 2-pentylfuran), ‘Dose’, ‘Sex’, and their interactions as independent variables. This analysis, when significant, was followed by post hoc Bonferroni tests (α=0.05) to determine individual differences among groups. Prior to analysis, EAG data were normalized relative to the response to the hexane control.

CCCC(=O)OCC [ethyl butanoate]
mean emission rate (±SE) [1]: 70.4 ± 14.2 mg/h | strength of EAG response compared among treatments [2]: stronger antennal responses than 2-pentylfuran | antennal (EAG) response [2]: dose-dependent antennal responses

C/C=C/C(=O)OCC [ethyl (E)-but-2-enoate]
mean emission rate (±SE) [1]: 54.9 ± 8.9 mg/h | strength of EAG response compared among treatments [2]: stronger antennal responses than 2-pentylfuran | antennal (EAG) response [2]: dose-dependent antennal responses

CCCCCc1ccco1 [2-pentylfuran, reference compound]
mean emission rate (±SE) [1]: 82.3 ± 7.6 mg/h | antennal (EAG) response [2]: dose-dependent antennal responses
